# Assay: gradient 5% acetonitrile 3 min, to 50% in 2 min, to 85% in 15 min, held 3 min, 100 µL/min
# Conditions: column: Zorbax Extend-C18 2.1 x 50 mm; eluents: water / acetonitrile, 0.1% formic acid
# Summary of the method: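 Each retention time is based on an adduct peak selected computationally and verified by manual inspection. Measurements used HPLC–quadrupole time-of-flight mass spectrometry in positive and negative ionization mode on mixtures of ~100 pure standards. Chromatography ran on a Zorbax Extend-C18 column (2.1 × 50 mm, 1.8 μm) at 100 μL/min with water and acetonitrile, each containing 0.1% formic acid, and dead and dwell volumes of 40 μL and 900 μL.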
row,SMILES,RP-LC retention time [s]
1,Cc1nc(Cn2cccc2C(=O)Nc2cccc(C#N)c2)no1,798
2,CC(C)n1cnc(S(=O)(=O)N2CCC(C(=O)Nc3ccc(F)cc3F)CC2)c1,728
3,CCCCOc1ccc(C(=O)Nc2ccc(-c3cn4ccc(C)nc4n3)cc2)cc1,781
4,CC(C)c1ccc(NC(=O)CN2C(=O)CC(C)(C)S(=O)(=O)c3ccccc32)cc1,898
5,CCc1csc(-c2ccc(S(=O)(=O)NCCN3CCC(C)CC3)s2)n1,718
6,O=C(COc1ccc(NC(=O)C2CC2)cn1)NCc1cc(F)cc(F)c1,754
7,Cc1cc(OCC(=O)N[C@@H](CC(C)C)C(=O)O)c2c3c(c(=O)oc2c1)CCC3,822
8,CC(C)c1ccc(Nc2nc3ccncc3n(C(C)C)c2=O)cc1,774
9,CCOc1cc(=O)n2c(c1C(=O)NCC1CCCO1)CCCCC2 (configuration not stated),610
10,CC1=C(c2ccccc2)S(=O)(=O)N=C1N1CCC(NC(=O)C2CCCO2)CC1 (configuration not stated),702
11,Cc1cc(F)ccc1NC(=O)Cc1nnc(-c2cnccn2)o1,659
12,CCOCCCNC(=O)Cn1cccc1-c1nc(-c2ccc(Cl)cc2)cs1,1060
13,Clc1ccccc1-c1nnc(CN2CCN(c3ccccn3)CC2)o1,602
14,O=C(c1ccc(OCC2CCCN2C(=O)C2CCC2)cc1)N1CCCC1 (configuration not stated),783
15,CC(C)n1cnc(S(=O)(=O)N2CCC(C(=O)NCc3ccc(F)cc3)CC2)c1,721
16,COc1ccc(OCC(=O)N2CCCN(c3cc(=O)n(C(C)C)c(=O)n3C(C)C)CC2)cc1,834
17,COc1ccc(CNC(=O)C2(C)Cn3cnc(C(=O)N4CCc5ccccc54)c3C(=O)N2C2CC2)cc1 (configuration not stated),741
18,Cc1nc(-c2csc(S(=O)(=O)N3CCC(C(=O)Nc4ccc(F)cc4C)CC3)c2)no1,886
19,Cc1ccn2cc(CC(=O)Nc3ccccc3)nc2c1,588
20,Cc1ccc(CN2C(=O)NC3(CCN(C(=O)c4ccc[nH]4)CC3)C2=O)cc1,767
21,COc1ccc(-c2cn3c(CC(=O)N4CCCCC4)csc3n2)cc1OC,666
22,O=C(NCc1ccc2c(c1)OCO2)C1CCN(c2nc3ccccc3o2)CC1,754

row,SMILES,RP-LC retention time [s]
1,CSc1cccc(NC(=O)N2CCC(N3CCN(Cc4cccc(F)c4)C(=O)C3=O)CC2)c1,779
2,COc1cc(OC)c(NS(=O)(=O)c2c(C)sc(C)c2-c2cc(C(F)(F)F)on2)cc1Cl,1170
3,Cc1nc(NCCC2=CCCCC2)nc(N2CCOCC2)c1[N+](=O)[O-],965
4,CCC(=O)N1CCN(Cc2nc3cc(NC(=O)c4cccs4)ccc3n2C)CC1,602
5,CCOC(=O)c1c(S(=O)(=O)N2CCC(C(=O)NCc3ccc(C)cc3)CC2)c(C)n(C)c1C,841
6,CCN(CC)Cc1ccc2cc(COC(=O)Nc3ccc(C(=O)NO)cc3)ccc2c1,654
7,COc1ccc2c(c1)C1(CCN(C(=O)COc3cccc(C)c3)C1)C(=O)N2 (configuration not stated),668
8,Cc1ccsc1-c1nnc(CC(=O)N2CCN(Cc3ccc4c(c3)OCO4)CC2)o1,640
9,O=C1NC2(CCN(C(=O)Nc3ccc(F)cc3)CC2)N=C1c1ccc(Cl)cc1,890
10,CCn1c(C(=O)N2CCOCC2)cc2c(-c3cccs3)nn(-c3ccccc3)c21,944
11,CCc1onc(C)c1C1CCCN1C(=O)c1cccc(F)c1 (configuration not stated),784
12,CS(=O)(=O)N1CCN=C1SCc1ccc(Cl)c(Cl)c1,889
13,COc1ccc(-n2nnc(-c3nc(-c4cc(OC)ccc4OC)cs3)c2N)cc1,1080
14,Cc1ccc(N2C(=O)N(Cc3ccccc3)S(=O)(=O)c3cccnc32)cc1F,1100
15,CCOC(=O)c1ccccc1NC(=O)CSc1ccc(-c2ccc3c(c2)OCO3)nn1,974
16,O=C(NCCN1CCOCC1)c1cc2n(n1)CCCN(Cc1ccc(Cl)cc1)C2=O,629
17,CCc1noc(-c2ccc(-n3cnc(C(=O)NC(C)c4ccccc4)c3)nc2)n1 (configuration not stated),919
18,CCn1c(=O)c(N2CCC(C(=O)NCCc3c[nH]c4ccc(C)cc34)CC2)nc2ccccc21,966
19,O=C(NCCN1CCCC1)c1nc2ccccn2c1-c1ccc(F)cc1,611
20,O=C(Nc1cccc(-c2ccc(N3CCCC3)nn2)c1)c1c(F)cccc1F,647
21,O=C(NCc1ccccc1Cl)c1nnc(-c2ccc(S(=O)(=O)N3CCOCC3)cc2)o1,888
22,CC1=C(C(=O)O)N2C(=O)C(NC(=O)[C@H](N)c3ccccc3)[C@H]2SC1 (some centres not stated),627

row,SMILES,RP-LC retention time [s]
1,COC(=O)c1c2c(nc3ccccc13)CCN(C(=O)Nc1ccccc1)C2,743
2,COc1ccc(C2Cn3nnc(-c4nc(-c5ccccc5Br)no4)c3CO2)cc1 (configuration not stated),1150
3,CCN(CC)c1ccc(NC(=O)C2CCCN(C(=O)c3cc(C)cc(C)c3)C2)c(C)c1 (configuration not stated),659
4,Cc1cnc(C2CC2)n1C1CCN(S(=O)(=O)c2cccc(F)c2)C1 (configuration not stated),654
5,O=C(Nc1ccc(C2(C(=O)NCc3cccc(Cl)c3)CCC2)cc1)C1CC1,891
6,CCc1nc(-c2csc(S(=O)(=O)N3CCCC(C(=O)Nc4cccc(OC)c4)C3)c2)no1 (configuration not stated),1000
7,CCOc1ccc(NC(=O)C2CCN(S(=O)(=O)c3cn(C)cn3)CC2)cc1,699
8,CC(C)n1cc(S(=O)(=O)Nc2ccc(F)cc2Cl)c2cccnc21,989
9,COC(=O)c1cc(S(=O)(=O)N2CCCC2C(=O)NCc2ccc(C)cc2)cn1C (configuration not stated),939
10,O=C(NCC1CC1)c1cn(-c2ccc(-c3nc(C4CC4)no3)cn2)cn1,843
11,Cc1cc2c(N3CCCC(C(=O)NCc4cccc(Cl)c4)C3)nccc2s1 (configuration not stated),713
12,CN1CCC2(CC1)CN(C(=O)C1CCC1)Cc1ccccc1O2,619
13,Cc1ccc(S(=O)(=O)N2CCCC2c2nc(-c3cccc(Cl)c3)no2)cc1F (configuration not stated),1280
14,O=C(CCc1cn(Cc2ccccc2F)c2ccccc12)N1CCN(c2ccccn2)CC1,737
15,CCCc1noc(-c2ccnc(-n3cnc(C(=O)NC4CCCC4)c3)c2)n1,952
16,Cc1ccccc1N1CCN(S(=O)(=O)c2cc3n(c2)CCCN(C)C3=O)CC1,813
17,Cn1nc(C2CCCN(C(=O)c3ccco3)C2)n(C2CCCC2)c1=O (configuration not stated),701
18,Cc1cccc(CN2C[C@@H]3C(=O)N(CCCN4CCCC4=O)C(=O)[C@@H]3C2)c1,589
19,O=C(Nc1nnc(CCS(=O)(=O)c2ccccc2)o1)C1COc2ccccc2O1 (configuration not stated),686
20,Cn1c(C(=O)NCCc2c[nH]c3ccccc23)cc2c(-c3cccs3)nn(-c3ccccc3)c21,969
21,O=c1[nH]c(SCc2nnc(Nc3ccccc3)s2)nc2sc3c(c12)CCC3,801
22,Cc1cccc(C)c1NC(=O)Cn1c(C)nc2c(sc3nc(-c4ccccc4)ccc32)c1=O,1080

row,SMILES,RP-LC retention time [s]
1,O=C1N(c2ccc(F)cc2)c2ncccc2S(=O)(=O)N1Cc1ccccc1F,1040
2,O=S(=O)(Nc1cccc(Cl)c1)c1c[nH]c2ncccc12,765
3,CCOc1ccc(-c2nc(C3CC(=O)N(c4ccc(F)c(Cl)c4)C3)no2)cc1OCC (configuration not stated),1150
4,Cn1nccc1C(=O)Nc1sc(-c2ccccc2)cc1C(N)=O,810
5,O=C(NCc1ccccc1)NC1CCN(c2nc3cccnc3n(Cc3ccccc3)c2=O)CC1,1020
6,Cc1cc(C)c2sc(N(Cc3cccnc3)C(=O)c3snnc3C)nc2c1,823
7,Cc1cccc(NC(=O)Cn2cc(S(=O)(=O)c3ccc(F)cc3)c3ccccc32)n1,832
8,Cc1[nH]c(C(=O)Nc2ccc(F)c(Cl)c2)c(C)c1S(=O)(=O)N1CCCCC1,1020
9,N#Cc1cc2c(nc1SCC(=O)N1CCOCC1)CCCC2,798
10,CC1=C(c2ccc(F)cc2)S(=O)(=O)N=C1N1CCCN(C(=O)c2ccccc2C)CC1,831
11,c1ccc(-c2nc3cc(-c4noc(-c5ccncc5)n4)ccc3o2)cc1,1290
12,CCCNc1cc(N2CCC(CCC(=O)N(C)CCc3ccccn3)CC2)ncn1,570
13,O=C(Nc1nc2c(s1)CCc1ccccc1-2)c1ccc(S(=O)(=O)N2CCCC2)cc1,1110
14,Cc1ccccc1NC(=O)Cn1nc2c(N(C)C3CCCCC3)nccn2c1=O,745
15,COc1ccccc1N1CCN(CCNC(=O)Nc2ccc3c(c2)OCO3)CC1,569
16,Cc1ccccc1CNC(=O)CN1CCN(Cc2ccc(F)cc2Cl)C1=O,629
17,O=C1CC(c2ccccc2F)Cc2nc(N3CCN(c4ccccn4)CC3)ncc21 (configuration not stated),702
18,COc1ccc(Br)c(C(=O)N2CCc3[nH]cnc3C23CCCC3)c1,648
19,Cc1ccc(Cl)cc1NS(=O)(=O)c1cc(-c2cc(C(F)(F)F)on2)sc1C,1240
20,COc1ccc(NCc2ccc3c(c2)n(C)c(=O)n3C)cc1Cl,1150
21,CCc1ccccc1NC(=O)N1CC(c2nc(C)no2)C2(CCOCC2)C1 (configuration not stated),731

# Reference: the METLIN SMRT retention time set (Domingo-Almenara et al. 2019)
